Reference: US10179771B2 (GALAPAGOS NV, priority 2014, dated 2019)

Columns and labels:
[1] = target: T1, Recombinant human TYK2 catalytic domain (Homo sapiens, UniProt P29597); test: TYK2 inhibition assay; type: biochemical; conditions: Illustrative Compounds of the invention (Table XI)
T1 construct: Recombinant human TYK2 catalytic domain (amino acids 871-1187; catalog number 08-147); purchased Carna biosciences 08-147
T1 sequence (P29597 871-1187): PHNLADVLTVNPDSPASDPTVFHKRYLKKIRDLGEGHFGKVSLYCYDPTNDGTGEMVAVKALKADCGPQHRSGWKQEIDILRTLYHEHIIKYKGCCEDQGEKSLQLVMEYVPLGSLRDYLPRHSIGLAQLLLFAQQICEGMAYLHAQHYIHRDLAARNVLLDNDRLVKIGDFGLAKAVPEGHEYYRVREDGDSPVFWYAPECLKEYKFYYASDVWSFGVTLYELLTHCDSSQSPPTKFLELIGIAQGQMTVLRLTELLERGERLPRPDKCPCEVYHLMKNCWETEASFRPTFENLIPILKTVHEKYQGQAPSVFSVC
Description: Recombinant human TYK2 catalytic domain (amino acids 871-1187; catalog number 08-147) was purchased from Carna biosciences. 5 ng of TYK2 was incubated with 12.5 μg polyGT substrate (Sigma catalog number P0275) in kinase reaction buffer (25 mM Hepes pH 7.2, 50 mM NaCl, 0.5 mM EDTA, 1 mM DTT, 5 mM MnCl2, 10 mM MgCl2, 0.1% Brij-35, 0.1 μM non-radioactive ATP, 0.125 μCi ^33P-gamma-ATP (GE Healthcare, catalog number AH9968) final concentrations) with or without 5 μL containing test compound or vehicle (DMSO, 1% final concentration), in a total volume of 25 μL, in a polypropylene 96-well plate (Greiner, V-bottom). After 90 min at 30° C., reactions were stopped by adding 25 μL/well of 150 mM phosphoric acid. All of the terminated kinase reaction was transferred to prewashed (75 mM phosphoric acid) 96 well filter plates (Perkin Elmer catalog number 6005177) using a cell harvester (Perkin Elmer). Plates were washed 6 times with 300 μL per well of a 75 mM phosphoric acid solution and the bottom of the plates was sealed. 40 μL/well of Microscint-20 was added, the top of the plates was sealed and readout was performed using the Topcount (Perkin Elmer). Kinase activity was calculated by subtracting counts per min (cpm) obtained in the presence of a positive control inhibitor (10 μM staurosporine) from cpm obtained in the presence of vehicle. The ability of a test compound to inhibit this activity was determined as: Percentage inhibition=((cpm determined for sample with test compound present−cpm determined for sample with positive control inhibitor) divided by (cpm determined in the presence of vehicle−cpm determined for sample with positive control inhibitor))*100.
(§1) Dose dilution series were prepared for the compounds enabling the testing of dose-response effects in the TYK2 assay and the calculation of the IC50 for each compound. Each compound was routinely tested at concentration of 20 μM followed by a 1/3 serial dilution, 8 points (20 μM-6.67 μM-2.22 μM-740 nM-247 nM-82 nM-27 nM-9 nM) in a final concentration of 1% DMSO. When potency of compound series increased, more dilutions were prepared and/or the top concentration was lowered (e.g. 5 μM, 1 μM).

[2] = target: T2, Recombinant human JAK3 catalytic domain (Homo sapiens, UniProt P52333); test: JAK3 inhibition assay; type: biochemical; conditions: Illustrative Compounds of the invention (Table IX)
T2 construct: Recombinant human JAK3 catalytic domain (amino acids 781-1124; catalog number PV3855); purchased Invitrogen PV3855
T2 sequence (P52333 781-1124): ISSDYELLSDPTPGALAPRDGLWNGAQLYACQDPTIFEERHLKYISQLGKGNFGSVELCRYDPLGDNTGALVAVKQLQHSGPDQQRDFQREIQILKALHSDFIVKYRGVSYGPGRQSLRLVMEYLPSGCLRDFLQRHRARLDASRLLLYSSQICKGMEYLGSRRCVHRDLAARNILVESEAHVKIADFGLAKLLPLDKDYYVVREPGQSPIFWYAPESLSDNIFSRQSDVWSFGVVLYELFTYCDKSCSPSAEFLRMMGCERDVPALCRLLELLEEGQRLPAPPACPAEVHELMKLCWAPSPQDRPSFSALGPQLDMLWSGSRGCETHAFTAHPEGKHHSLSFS
Description: Recombinant human JAK3 catalytic domain (amino acids 781-1124; catalog number PV3855) was purchased from Invitrogen. 0.5 ng JAK3 protein was incubated with 2.5 μg polyGT substrate (Sigma catalog number P0275) in kinase reaction buffer (25 mM Tris pH 7.5, 0.5 mM EGTA, 10 mM MgCl2, 2.5 mM DTT, 0.5 mM Na3VO4, 5 mM b-glycerolphosphate, 0.01% Triton X-100, 1 μM non-radioactive ATP, […] ^33P-gamma-ATP (GE Healthcare, catalog number AH9968) final concentrations) with or without 5 μL containing test compound or vehicle (DMSO, 1% final concentration), in a total volume of 25 μL, in a polypropylene 96-well plate (Greiner, V-bottom). After 45 min at 30° C., reactions were stopped by adding 25 μL/well of 150 mM phosphoric acid. All of the terminated kinase reaction was transferred to prewashed (75 mM phosphoric acid) 96 well filter plates (Perkin Elmer catalog number 6005177) using a cell harvester (Perkin Elmer). Plates were washed 6 times with 300 μL per well of a 75 mM phosphoric acid solution and the bottom of the plates was sealed. 40 μL/well of Microscint-20 was added, the top of the plates was sealed and readout was performed using the Topcount (Perkin Elmer). Kinase activity was calculated by subtracting counts per min (cpm) obtained in the presence of a positive control inhibitor (10 μM staurosporine) from cpm obtained in the presence of vehicle. The ability of a test compound to inhibit this activity was determined as:
[formula] • RFU test compound=RFU determined for sample with test compound present • RFU control=RFU determined for sample with positive control inhibitor • RFU vehicle=RFU determined in the presence of vehicle
as §1, with “JAK3” for “TYK2”, “1/5” for “1/3”, “10” for “8”, “points” for “points (20 μM-6.67 μM-2.22 μM-740 nM-247 nM-82 nM-27 nM-9 nM)”

`CNc1cc(Oc2cnc(C#N)cc2C)cc2c1ncn2C` [Cpd 34, 4-methyl-5-[3-methyl-7-(methylamino)benzimidazol-5-yl]oxy-pyridine-2-carbonitrile] gave an IC50 [1] greater than 500 nM and an IC50 [2] greater than 500 nM.

Compound `CCc1cc(C#N)ncc1N(C)c1cc(NC(=O)C2CC2)c2ncn(C)c2c1` [Cpd 1, N-(6-((6-cyano-4-ethylpyridin-3-yl)(methyl)amino)-1-methyl-1H-benzo[d]imidazol-4-yl)cyclopropanecarboxamide] has an IC50 [1] of 0.1 to 50 nM and an IC50 [2] of 50 to 100 nM.

For `CCc1cc(C#N)ncc1N(C)c1cc(NC(=O)[C@H]2C[C@H]2F)c2ncn(C)c2c1` [Cpd 8, (1R,2R)-N-(6-((6-cyano-4-ethylpyridin-3-yl)(methyl)amino)-1-methyl-1H-benzo[d]imidazol-4-yl)-2-fluorocyclopropanecarboxamide], the IC50 [1] was 0.1 to 50 nM and the IC50 [2] was 100 to 500 nM.

In the case of `Cc1cc(C#N)ncc1Oc1cc(N)c2ncn(C)c2c1` [Cpd 28, 5-(7-amino-3-methyl-benzimidazol-5-yl)oxy-4-methyl-pyridine-2-carbonitrile], the IC50 [1] is reported as 100 to 500 nM and the IC50 [2] is reported as greater than 500 nM.

Work on `CCc1cc(C(N)=O)ncc1N(C)c1cc(NC(=O)C2CC2)c2ncn(C)c2c1` [Cpd 24, 5-((4-(cyclopropanecarboxamido)-1-methyl-1H-benzo[d]imidazol-6-yl)(methyl)amino)-4-ethylpicolinamide] yielded an IC50 [1] of 0.1 to 50 nM and an IC50 [2] of 100 to 500 nM.

For `CCc1cc(C#N)cc(F)c1N(C)c1cc(NC(=O)C2CC2)c2ncn(C)c2c1` [Cpd 3, N-(6-((4-cyano-2-ethyl-6-fluorophenyl)(methyl)amino)-1-methyl-1H-benzo[d]imidazol-4-yl)cyclopropanecarboxamide], the IC50 [1] was 0.1 to 50 nM and the IC50 [2] was 0.1 to 50 nM.

`Cc1cc(C#N)ncc1Oc1cc(NC(=O)[C@H]2C[C@H]2F)c2ncn(C)c2c1` [Cpd 20, (1R,2R)-N-[6-[(6-cyano-4-methyl-3-pyridyl)oxy]-1-methyl-benzimidazol-4-yl]-2-fluoro-cyclopropanecarboxamide] showed an IC50 [1] of 0.1 to 50 nM and an IC50 [2] greater than 500 nM.

In the case of `Cc1cc(C#N)ncc1Oc1cc(NC(=O)N2CC(O)C2)c2ncn(C)c2c1` [Cpd 36, N-[6-[(6-cyano-4-methyl-3-pyridyl)oxy]-1-methyl-benzimidazol-4-yl]-3-hydroxy-azetidine-1-carboxamide], the IC50 [1] is reported as greater than 500 nM and the IC50 [2] is reported as greater than 500 nM.

Work on `Cc1cc(C#N)nc(F)c1N(C)c1cc(NC(=O)[C@H]2C[C@H]2F)c2ncn(C)c2c1` [Cpd 21, (1R,2R)-N-[6-[(6-cyano-2-fluoro-4-methyl-3-pyridyl)-methyl-amino]-1-methyl-benzimidazol-4-yl]-2-fluoro-cyclopropanecarboxamide] yielded an IC50 [1] of 0.1 to 50 nM and an IC50 [2] of 50 to 100 nM.

`Cc1cc(S(C)(=O)=O)cc(F)c1N(C)c1cc(NC(=O)C2CC2)c2ncn(C)c2c1` [Cpd 19, N-[6-(2-fluoro-N,6-dimethyl-4-methylsulfonyl-anilino)-1-methyl-benzimidazol-4-yl]cyclopropanecarboxamide] was tested, and the IC50 [1] was 0.1 to 50 nM and the IC50 [2] was 50 to 100 nM.

With `CN(c1cc(NC(=O)[C@H]2C[C@H]2F)c2ncn(C)c2c1)c1ccc(F)nc1F` [Cpd 13, (1R,2R)-N-[6-[(2,6-difluoro-3-pyridyl)-methyl-amino]-1-methyl-benzimidazol-4-yl]-2-fluoro-cyclopropanecarboxamide] the IC50 [1] was 0.1 to 50 nM and the IC50 [2] was greater than 500 nM.

`Cc1cc(C(N)=O)ncc1Oc1cc(NC(=O)[C@H]2C[C@H]2F)c2ncn(C)c2c1` [Cpd 32, 5-[7-[[(1R,2R)-2-fluorocyclopropanecarbonyl]amino]-3-methyl-benzimidazol-5-yl]oxy-4-methyl-pyridine-2-carboxamide] showed an IC50 [1] of 50 to 100 nM and an IC50 [2] greater than 500 nM.

For `CN(c1cc(NC(=O)[C@H]2C[C@H]2F)c2ncn(C)c2c1)c1ccc(C#N)cc1F` [Cpd 15, (1R,2R)-N-[6-(4-cyano-2-fluoro-N-methyl-anilino)-1-methyl-benzimidazol-4-yl]-2-fluoro-cyclopropanecarboxamide], the IC50 [1] was 0.1 to 50 nM and the IC50 [2] was greater than 500 nM.

Work on `CCc1cc(C#N)ccc1Oc1cc(NC(=O)[C@H]2C[C@H]2F)c2ncn(C)c2c1` [Cpd 10, (1R,2R)-N-[6-(4-cyano-2-ethyl-phenoxy)-1-methyl-benzimidazol-4-yl]-2-fluoro-cyclopropanecarboxamide] yielded an IC50 [1] of 0.1 to 50 nM and an IC50 [2] of 100 to 500 nM.

Work on `CNC(=O)Nc1cc(Oc2cnc(C#N)cc2C)cc2c1ncn2C` yielded an IC50 [1] of 0.1 to 50 nM and an IC50 [2] of 100 to 500 nM.

For `CCc1cc(C(N)=O)ncc1N(C)c1cc(NC(=O)[C@H]2C[C@H]2F)c2ncn(C)c2c1` [Cpd 25, 4-ethyl-5-((4-((1R,2R)-2-fluorocyclopropanecarboxamido)-1-methyl-1H-benzo[d]imidazol-6-yl)(methyl)amino)picolinamide], the IC50 [1] was 0.1 to 50 nM and the IC50 [2] was 100 to 500 nM.
